Tested on: TRF1, mutp53, hTERT, TRF2, c-myc, and 53BP1
Assay: Western blot in BEL-7404 xenograft models
Assay type: in vivo, BALB/c nude mice
Conditions: 8 mg/kg and 4 mg/kg
Experimental: (E–H) In vivo tumor growth inhibition activity of complex 6 (4.0, 8.0 mg/kg/d) treated of BEL-7402 model with 4.0 and 8.0 mg/kg/d, comparing with cisplatin (2 mg/kg/2 days). (A) and (E). Changes in tumor volume between treatment groups (including complex 6 (4.0, 8.0 mg/kg/d), 5-FU (20 mg/kg/2 days) or cisplatin (2 mg/kg/2 days)) and vehicle (saline) group of BEL-7404 tumor-bearing mice and BEL-7402 tumor-bearing mice. Data of tumor growth were tracked by the mean tumor volume (mm^3) ± SD (n = 6) and calculated as percent TGI (tumor growth inhibition, %) values. (B and F) Relative body weight change by considering the body weight at the start of the treated group as 100%, the percent weight loss or gain was calculated on subsequent days of treatment. (C) and (G) Tumor weight between treatment groups and vehicle (saline) group of BEL-7404 tumor-bearing mice and BEL-7402 tumor-bearing mice. […] (I) The expression protein level of TRF1, mutp53, hTERT, TRF2, c-myc, and 53BP1 were analyzed by western blot in BEL-7404 xenograft models treated with 8 mg/kg and 4 mg/kg complex 6, and 20 mg/kg 5-FU, respectively. (J) The whole-BEL-7404 xenograft model extracts were prepared and analyzed by Western blot analysis using antibodies against TRF1, mutp53, hTERT, TRF2, c-myc, and 53BP1. […] Western blotting bands from three independent measurements were quantified with Image J. in (I). […]

cis-[PtCl2(S-(–)-FOA)] [complex 6]
expression of mutp53, c-myc, and hTERT: down-regulated
protein expression of TRF1, TRF2, and 53BP1: significantly up-regulated
